Among the test systems are BT-549 breast; IGROV1 ovarian; CCRF-CEM leukemia; U251 CNS; NCI-H23 lung; UO-31 renal; ACHN renal; SK-OV-3 ovarian.
Test in all cases: NCI tumour cell line growth inhibition, 48 h

Structures are written as SMILES.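 Following 48 hours of exposure in 96-well plates, responses at five concentrations were used to interpolate endpoints linearly. GI50: concentration for 50% inhibition of growth. TGI denotes the concentration required for complete inhibition of growth.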 Bounds are passed on as bounds.

`c1ccc2[nH]c(-c3ccc(N4CCN(c5ccc(-c6nc7ccccc7[nH]6)cc5)CC4)cc3)nc2c1`: the GI50 in the assay on BT-549 breast is > 100 µM; with IGROV1 ovarian, 69.6 µM; with CCRF-CEM leukemia, 44.6 µM; with U251 CNS, 41.3 µM; in the assay on NCI-H23 lung it was > 100 µM; in the assay with UO-31 renal, > 100 µM. In addition, the GI50 in the assay with ACHN renal is > 100 µM. The TGI with BT-549 breast, in the assay with IGROV1 ovarian, in the assay with CCRF-CEM leukemia, in the assay on U251 CNS, in the assay on NCI-H23 lung and in the assay on UO-31 renal was > 100 µM each time. In addition, the TGI in the assay with ACHN renal is > 100 µM.
Regarding `O=C(CCl)c1ccc([N+](=O)[O-])o1`, the GI50 in the assay with SK-OV-3 ovarian was 14.9 µM; in the assay with BT-549 breast it was 2.24 µM; in the assay on IGROV1 ovarian, 5.5 µM; in the assay with CCRF-CEM leukemia, 0.932 µM; with U251 CNS it was 1.95 µM; in the assay with NCI-H23 lung, 4.94 µM. Moreover, the GI50 with UO-31 renal was 2.14 µM; in the assay with ACHN renal it was 1.68 µM. Further, the TGI with SK-OV-3 ovarian was 30.5 µM; with BT-549 breast it was 6.85 µM; with IGROV1 ovarian, 14 µM; with CCRF-CEM leukemia, 2.51 µM; with U251 CNS, 4.37 µM; with NCI-H23 lung, 26 µM. For the same molecule, the TGI in the assay on UO-31 renal came out at 6.7 µM; with ACHN renal, 3.26 µM.
For the molecule `CC12CCC(=O)C=C1CCC1C2CCC2(C)C(C(=O)Cn3cnc4c(=S)nc[nH]c43)CCC12` (centres undefined), the TGI in the assay with SK-OV-3 ovarian was > 100 µM; in the assay with BT-549 breast, > 100 µM; with IGROV1 ovarian it was > 100 µM; with CCRF-CEM leukemia it was > 100 µM; in the assay with U251 CNS, > 100 µM; in the assay on NCI-H23 lung it was 82.5 µM. For the same molecule, the TGI in the assay on UO-31 renal and in the assay on ACHN renal was > 100 µM each time.
Take `CC(=O)OC1c2ccccc2CC2(OC(C)=O)c3ccccc3C12` (centres undefined): the TGI with SK-OV-3 ovarian, with IGROV1 ovarian, in the assay with CCRF-CEM leukemia, in the assay on U251 CNS, with NCI-H23 lung and with UO-31 renal was > 100 µM throughout. Further, the TGI with ACHN renal was > 100 µM.
Take `Nc1nc(/C=C\c2ccc([N+](=O)[O-])o2)nc(N2CCN(c3ccccc3)CC2)n1`: the GI50 with SK-OV-3 ovarian was 17.1 µM; with BT-549 breast, 15.7 µM; in the assay with IGROV1 ovarian, 5.31 µM; with CCRF-CEM leukemia, 8.01 µM; in the assay on U251 CNS, 6.06 µM; in the assay with UO-31 renal, 13.6 µM. Further, the GI50 in the assay on ACHN renal was 4.45 µM. Besides, the TGI in the assay with SK-OV-3 ovarian was 44.7 µM; in the assay on BT-549 breast, > 100 µM; in the assay with IGROV1 ovarian, 32.3 µM; in the assay with CCRF-CEM leukemia, 82.3 µM; with U251 CNS, 39.7 µM; in the assay with UO-31 renal it was 39.8 µM. The molecule further showed a TGI in the assay on ACHN renal of 21.6 µM.
With `CN(C)CCCNC(=O)c1cc(NC(=O)CCNS(=O)(=O)c2ccc3c(c2)C(=O)c2ccccc2C3=O)cn1C`, the GI50 in the assay with SK-OV-3 ovarian, in the assay with BT-549 breast, in the assay on IGROV1 ovarian, in the assay on CCRF-CEM leukemia, in the assay with NCI-H23 lung and with UO-31 renal was > 100 µM each time. Further, the TGI with SK-OV-3 ovarian, in the assay on BT-549 breast, in the assay on IGROV1 ovarian, in the assay on CCRF-CEM leukemia, with NCI-H23 lung and with UO-31 renal was > 100 µM throughout.
In the case of `CC1(C)CCC2(C(=O)OC3OC(CO)C(O)C(O)C3O)CC[C@]3(C)C(=CCC4C5(C)CC[C@H](OC6OC(C(=O)O)C(O)C(O)C6O)C(C)(C)C5CCC43C)C2C1` (some centres undefined), the GI50 in the assay with BT-549 breast is 1.7 µM; in the assay with IGROV1 ovarian, 1.7 µM; in the assay with CCRF-CEM leukemia it was 23.1 µM; in the assay with U251 CNS, 1.06 µM; in the assay with NCI-H23 lung, 1.48 µM; in the assay on UO-31 renal, 12.7 µM. In addition, the GI50 with ACHN renal was 6.3 µM. Further, the TGI in the assay with BT-549 breast was 25.8 µM; in the assay with IGROV1 ovarian, > 50 µM; with CCRF-CEM leukemia, > 50 µM; with U251 CNS, 2.61 µM; with NCI-H23 lung, 3.73 µM; with UO-31 renal, 31.8 µM. Further, the TGI with ACHN renal worked out at 12.6 µM.
For `COc1ccc2c(c1)CCC1C2CCC2(C)C1CCC2(O)CNC(=O)CCCCC1CCSS1` (centres undefined), the GI50 with BT-549 breast was 19.3 µM; with IGROV1 ovarian, 22.7 µM; with CCRF-CEM leukemia, 1.59 µM; in the assay with U251 CNS, 15.2 µM; in the assay on NCI-H23 lung it was 20.8 µM; in the assay with UO-31 renal, 24.9 µM. Besides, the GI50 with ACHN renal was 53.6 µM. Moreover, the TGI is 98.4 µM with BT-549 breast; > 100 µM in the assay with IGROV1 ovarian; 4.33 µM in the assay with CCRF-CEM leukemia; 56.6 µM in the assay with U251 CNS; > 100 µM with NCI-H23 lung; > 100 µM with UO-31 renal. Further, the TGI in the assay with ACHN renal was > 100 µM.
On to `COc1cccc(OC(=O)c2ccccc2Nc2ccnc(C(F)(F)F)c2)c1`, for which the GI50 in the assay on BT-549 breast is 8.11 µM; with IGROV1 ovarian, 23.6 µM; in the assay with U251 CNS, 2.86 µM; with NCI-H23 lung it was 2.04 µM; in the assay on UO-31 renal it was 61.2 µM; in the assay with ACHN renal it was 3.4 µM. Moreover, the TGI in the assay on BT-549 breast was 55 µM; in the assay with IGROV1 ovarian, > 100 µM; in the assay with U251 CNS it was 11 µM; in the assay with NCI-H23 lung, 6.73 µM; in the assay on UO-31 renal, > 100 µM; in the assay with ACHN renal, 24.7 µM.
With `COc1cc2cc(Oc3ccc(NC(=O)Nc4ccc(Cl)c(C(F)(F)F)c4)cc3)c(C)nc2cc1OCCN1CCCCC1`, the GI50 in the assay with SK-OV-3 ovarian was 2.28 µM; in the assay on BT-549 breast it was 1.79 µM; in the assay with IGROV1 ovarian, 1.48 µM; in the assay with CCRF-CEM leukemia, 1.68 µM; in the assay on NCI-H23 lung, 1.69 µM; with UO-31 renal it was 1.36 µM. Also, in the assay with ACHN renal, the GI50 was 1.57 µM. Moreover, the TGI came to 3.93 µM in the assay on SK-OV-3 ovarian; 3.45 µM with BT-549 breast; 2.94 µM with IGROV1 ovarian; 3.76 µM in the assay with CCRF-CEM leukemia; 3.28 µM with NCI-H23 lung; 2.69 µM in the assay with UO-31 renal. This molecule also came in with a TGI in the assay with ACHN renal of 2.92 µM.
Regarding `Cc1ccc2[nH]c(C(=O)NN3C(=O)CSC34CCCCC4C)c(-c3ccccc3)c2c1` (centres undefined), the GI50 in the assay on SK-OV-3 ovarian was 21.4 µM; with BT-549 breast, 20 µM; in the assay on CCRF-CEM leukemia, 17 µM; in the assay with U251 CNS it was 16.8 µM; with NCI-H23 lung, 17 µM; in the assay on UO-31 renal, 15.5 µM. Also, in the assay on ACHN renal, the GI50 was 17.3 µM. For the same molecule, the TGI in the assay on SK-OV-3 ovarian stood at 47.1 µM; in the assay on BT-549 breast it was 36.7 µM; in the assay on CCRF-CEM leukemia it was 38.5 µM; in the assay on U251 CNS, 32.7 µM; with NCI-H23 lung, 33.2 µM; with UO-31 renal, 30.9 µM. The same molecule registered a TGI with ACHN renal of 33.3 µM.

Values taken from PubChem BioAssay (NCI).
